Seven molecules from patent US10952436B2, “Microbiocidal quinoline (thio)carboxamide derivatives” (SYNGENTA PARTICIPATIONS AG, priority 2017, dated 2021) can be followed below.

Data set [1] has as its system Glomerella lagenarium (Colletotrichum lagenarium). The data set can be described thus: Glomerella lagenarium (Colletotrichum lagenarium)/Liquid Culture (Anthracnose). In kind it is cell-based. Conditions: Colletotrichum orbiculare; 200 ppm; liquid culture, compared to untreated control, 3-4 days after application; read-out: control of Glomerella lagenarium.
For data set [2], the system named is Fusarium culmorum. The data set can be described thus: microbe, parasite or virus in culture. The data set is classed as cell-based. To be noted: read-out: control of Fusarium culmorum.
Data set [3] concerns Magnaporthe grisea (Pyricularia oryzae). The data set can be described thus: microbe, parasite or virus in culture. In kind it is cell-based. To be noted: read-out: control of Magnaporthe grisea.
In data set [4] the test system is Botryotinia fuckeliana (Botrytis cinerea). The data set can be described thus: Botryotinia fuckeliana (Botrytis cinerea)/Liquid Culture (Gray Mould). In kind it is cell-based. Conditions: 200 ppm, liquid culture, compared to untreated control, 3-4 days after application, read-out: control of Botryotinia fuckeliana.
In a further data set the test system is Sclerotinia sclerotiorum. The data set can be described thus: Sclerotinia sclerotiorum/Liquid Culture (Cottony Rot). Conditions: read-out: control of Sclerotinia sclerotiorum.
In data set [5] the test system is Fusarium culmorum. Nature of the data set: whole plant or invertebrate. To be noted: in Triticum aestivum, read-out: control of Fusarium culmorum. In kind it is in vivo.
The test system of data set [6] is Monographella nivalis (Microdochium nivale). Nature of the data set: Monographella nivalis (Microdochium nivale)/Liquid Culture (Foot Rot Cereals). The data set is classed as cell-based. Conditions: 200 ppm, liquid culture, compared to untreated control, 4-5 days after application, read-out: control of Monographella nivalis.

Description for Sclerotinia sclerotiorum: Mycelia fragments of a newly grown liquid culture of the fungus are directly mixed into nutrient broth (Vogels broth). After placing a (DMSO) solution of test compound into a microtiter plate (96-well format) the nutrient broth containing the fungal material is added. The test plates are incubated at 24° C. and the inhibition of growth is determined photometrically 3-4 days after application.

For the molecule `Cc1nc2c(F)cccc2cc1NC(=O)C(C)(Cc1ccc(F)cc1)CC(F)(F)F` (centres unmarked) [Compound E-16, 4,4,4-trifluoro-N-(8-fluoro-2-methyl-3-quinolyl)-2-[(4-fluorophenyl)methyl]-2-methyl-butanamide], the inhibition of growth at 200 ppm (in data set [1]; in the data set on Fusarium culmorum [2]; in data set [3]; in data set [4]) was no less than 80% each time. The inhibition of growth at 20 ppm in the data set on Sclerotinia sclerotiorum is no less than 80%.
As for `C/C=C\CC(C)(Cc1ccccc1)C(=O)Nc1cnc2c(F)cccc2c1` (centres unmarked) [Compound E-28, (Z)-2-benzyl-N-(8-fluoro-3-quinolyl)-2-methyl-hex-4-enamide], the melting point lay within 128 to 130 °C. The inhibition of growth at 200 ppm in data set [1] is no less than 80%. In the data set on Fusarium culmorum [5], the pest or weed control at 200 ppm is no less than 80%. Further, the inhibition of growth at 200 ppm in the data set on Fusarium culmorum [2] is no less than 80%. Further, in data set [3], the inhibition of growth at 200 ppm was no less than 80%. Also, the inhibition of growth at 200 ppm in data set [6] was no less than 80%. Moreover, the inhibition of growth at 200 ppm in data set [4] is no less than 80%.
As to `COC(Cc1ccccc1)(CC(C)C)C(=O)Nc1cc2cccc(F)c2nc1C` (centres unmarked) [Compound E-37, 2-benzyl-N-(8-fluoro-2-methyl-3-quinolyl)-2-methoxy-4-methyl-pentanamide], the melting point lay within 92 to 94 °C. Also, the inhibition of growth at 200 ppm in data set [1] is no less than 80%. Moreover, in the data set on Fusarium culmorum [5], the pest or weed control at 200 ppm is no less than 80%. Besides, the inhibition of growth at 200 ppm with Fusarium culmorum [2] was no less than 80%. In addition, the inhibition of growth at 200 ppm in data set [3] was no less than 80%. In data set [6], the inhibition of growth at 200 ppm is no less than 80%. Further, the inhibition of growth at 200 ppm in data set [4] is no less than 80%.
Consider `COC(C)(Cc1ccccc1)C(=O)Nc1cnc2c(F)cccc2c1` (centres unmarked) [Compound E-43, N-(8-fluoro-3-quinolyl)-2-methoxy-2-methyl-3-phenyl-propanamide], for which the melting point lay within 107 to 109 °C. For the same molecule, the inhibition of growth at 200 ppm in data set [1] is no less than 80%. The pest or weed control at 200 ppm in the data set on Fusarium culmorum [5] was no less than 80%. The inhibition of growth at 200 ppm in the data set with Fusarium culmorum [2] was no less than 80%. Further, the inhibition of growth at 200 ppm in data set [3] is no less than 80%. Moreover, in data set [6], the inhibition of growth at 200 ppm is no less than 80%. Besides, the inhibition of growth at 200 ppm in data set [4] was no less than 80%.
The molecule `O=C(Nc1cnc2c(F)cccc2c1)C(Cc1ccccc1)CC(F)(F)Cl` (centres unmarked) [Compound E-58, 2-benzyl-4-chloro-4,4-difluoro-N-(8-fluoro-3-quinolyl)butanamide] displayed a melting point of 65 to 70 °C. In data set [1], the inhibition of growth at 200 ppm was no less than 80%. Further, in the data set on Fusarium culmorum [5], the pest or weed control at 200 ppm is no less than 80%. Besides, the inhibition of growth at 200 ppm with Fusarium culmorum [2] was no less than 80%. Further, the inhibition of growth at 200 ppm in data set [3] is no less than 80%. The inhibition of growth at 200 ppm in data set [6] is no less than 80%. In data set [4], the inhibition of growth at 200 ppm was no less than 80%.
In turn, `Cc1cccc2cc(NC(=O)C(C)(Cc3ccccc3)CC(F)(F)F)cnc12` (centres unmarked) [Compound E-59, 2-benzyl-4,4,4-trifluoro-2-methyl-N-(8-methyl-3-quinolyl)butanamide] came in with a melting point of 123 to 125 °C. Besides, the inhibition of growth at 200 ppm in data set [1] was no less than 80%. Further, the pest or weed control at 200 ppm in the data set on Fusarium culmorum [5] is no less than 80%. In addition, in the data set on Fusarium culmorum [2], the inhibition of growth at 200 ppm was no less than 80%. Moreover, the inhibition of growth at 200 ppm in data set [3] was no less than 80%. The inhibition of growth at 200 ppm in data set [6] was no less than 80%. Also, the inhibition of growth at 200 ppm in data set [4] was no less than 80%.
The molecule `CC(Cc1ccccc1)(CC(F)(F)F)C(=O)Nc1cnc2c(F)c(F)ccc2c1` (centres unmarked) [Compound E-60, 2-benzyl-N-(7,8-difluoro-3-quinolyl)-4,4,4-trifluoro-2-methyl-butanamide] returned a melting point of 183 to 186 °C. Besides, the inhibition of growth at 200 ppm in data set [1] is no less than 80%. Also, the pest or weed control at 200 ppm in the data set on Fusarium culmorum [5] is no less than 80%. The inhibition of growth at 200 ppm in the data set on Fusarium culmorum [2] is no less than 80%. Besides, the inhibition of growth at 200 ppm in data set [3] is no less than 80%. Besides, the inhibition of growth at 200 ppm in data set [6] is no less than 80%. In addition, in data set [4], the inhibition of growth at 200 ppm is no less than 80%.
